{"source": "paper PMC11467737", "about": "“Osteocalcin binds to a GPRC6A Venus fly trap allosteric site to positively modulate GPRC6A signaling” (FASEB BioAdvances, 2024)", "key": {"[1]": {"target": "T1, K352E hGPRC6A (Homo sapiens, UniProt Q5T6X5, K352E)", "T1 construct": "expressed in transfected cells; host or cells: HEK-293, pcDNA3", "T1 sequence (Q5T6X5 19-926 K352E)": "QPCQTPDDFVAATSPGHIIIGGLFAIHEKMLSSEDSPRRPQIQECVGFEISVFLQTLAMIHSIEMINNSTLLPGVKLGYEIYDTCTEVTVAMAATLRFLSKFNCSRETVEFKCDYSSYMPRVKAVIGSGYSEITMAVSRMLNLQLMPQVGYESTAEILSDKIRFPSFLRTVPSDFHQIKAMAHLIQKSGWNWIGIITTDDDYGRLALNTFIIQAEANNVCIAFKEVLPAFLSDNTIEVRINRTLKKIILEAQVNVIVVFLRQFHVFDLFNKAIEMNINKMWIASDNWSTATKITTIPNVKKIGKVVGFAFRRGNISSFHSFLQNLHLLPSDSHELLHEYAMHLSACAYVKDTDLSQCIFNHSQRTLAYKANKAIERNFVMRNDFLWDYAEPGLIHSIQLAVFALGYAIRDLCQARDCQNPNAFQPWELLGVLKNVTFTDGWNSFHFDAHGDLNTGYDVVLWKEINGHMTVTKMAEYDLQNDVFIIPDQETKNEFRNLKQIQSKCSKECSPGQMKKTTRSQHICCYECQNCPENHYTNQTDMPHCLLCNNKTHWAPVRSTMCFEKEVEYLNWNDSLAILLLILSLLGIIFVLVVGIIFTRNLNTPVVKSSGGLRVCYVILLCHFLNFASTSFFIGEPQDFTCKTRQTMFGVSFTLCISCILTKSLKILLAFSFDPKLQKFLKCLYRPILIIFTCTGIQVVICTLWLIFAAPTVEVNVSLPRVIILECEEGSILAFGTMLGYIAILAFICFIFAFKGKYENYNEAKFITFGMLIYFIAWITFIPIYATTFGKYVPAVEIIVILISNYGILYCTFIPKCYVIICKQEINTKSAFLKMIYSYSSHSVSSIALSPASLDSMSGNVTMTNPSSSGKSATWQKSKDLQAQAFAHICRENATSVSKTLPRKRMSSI", "experiment": "ERK activation in HEK-293 cells transfected with K352E hGPRC6A", "assay_type": "cell-based", "conditions": "K352E mutant; for ERK activation by Ocn small fragments: fragment at 20 nM, Figure 6D", "method": "All culture reagents were from Invitrogen (Waltham, MA, USA). Human embryonic kidney HEK‐293 cells were obtained from American Type Culture Collection and cultured in DMEM medium supplemented with 10% fetal bovine serum and 1% Penicillin/Streptomycin (P/S). Briefly, HEK‐293 cells transfected with/without human GPRC6A isoforms cDNA plasmids were starved by overnight incubation in serum‐free DMEM/F12 containing 0.1% bovine serum albumin (BSA) and stimulated with various ligands at different doses. ERK activation was assessed 20 min after treatment by using ERK1/2 (phospho‐T203/Y204) ELISA Kit (Invitrogen; Waltham, MA, USA) corrected for the amount of total ERK using ERK1/2 (Total) ELISA Kit (Invitrogen; Waltham, MA, USA) to measure ERK levels.\nIn‐vitro mutagenesis by PCR‐mediated recombination QuikChange II XL Site‐Directed Mutagenesis Kit (Agilent) was performed using the cDNA of human GPRC6A cloned in the vector pcDNA3 (Invitrogen) as a template. The primer sets are as follows. K352E.sen: […]; K352E.antisen: […]; H355P.sen: […]; H355P.antisen: […]; K352E/H355P.sen: […]; and K352E/H355P.antisen: […]. All mutants were confirmed by sequencing."}, "[2]": {"target": "T2, human GPRC6A isoform 1 (Homo sapiens, UniProt Q5T6X5)", "T2 construct": "expressed in transfected cells; host or cells: HEK-293, pcDNA3-hGPRC6A", "T2 sequence (Q5T6X5 19-926)": "T1 sequence (Q5T6X5 19-926 K352E) with E334K", "experiment": "ERK activation (phospho-ERK/total ERK ELISA) in HEK-293 cells transfected with human GPRC6A isoform 1 (wild-type)", "assay_type": "cell-based", "conditions": "for ERK phosphorylation by synthesized human Ocn fragments: fragments at 20 nM, HEK-293 with pcDNA3-hGPRC6A, Figure 3B / S5B", "method": "All culture reagents were from Invitrogen (Waltham, MA, USA). Human embryonic kidney HEK‐293 cells were obtained from American Type Culture Collection and cultured in DMEM medium supplemented with 10% fetal bovine serum and 1% Penicillin/Streptomycin (P/S). Briefly, HEK‐293 cells transfected with/without human GPRC6A isoforms cDNA plasmids were starved by overnight incubation in serum‐free DMEM/F12 containing 0.1% bovine serum albumin (BSA) and stimulated with various ligands at different doses. […]"}}, "note": "Where a chain is given by its changes, count along the chain named. Bridge positions count the residues as written; N and C are the ends. Ends that are not written are not given here."}
{"substance": "RFYGPV [Ocn 44–49, synthesized human Ocn C‐terminal hexapeptide]", "values": [{"measurement": "ERK activation by Ocn small fragments", "setting": "[1]", "result": "significantly attenuated"}, {"measurement": "ERK phosphorylation by synthesized human Ocn fragments", "setting": "[2]; 15 min", "result": "high activity"}]}
{"substance": "REVCELNPDC (disulfide 4-10 (inferred)) [Ocn 20–29, synthesized human Ocn decapeptide fragment located in the middle of the protein]", "values": [{"measurement": "ERK activation by Ocn small fragments", "setting": "[1]", "result": "no response"}, {"measurement": "ERK phosphorylation by synthesized human Ocn fragments", "setting": "[2]; 15 min", "result": "high activity"}]}
{"substance": "osteocalcin (YLYQWLGAPVPYPDPLEPRREVCELNPDCDELADHIGFQEAYRRFYGPV; not fully specified; ends and bridges not checked; UniProt P02818 52-100, looked up) [Ocn 1–49, full human Ocn (49 aa) synthesized by BioMatik; methods also describe decarboxylated Ocn purified from bovine tibial bone, reference compound]", "values": [{"measurement": "ERK phosphorylation, dose response of full-length Ocn, versus wild-type receptor", "setting": "[1]; Figure 6B", "result": "significantly decreased"}, {"measurement": "ERK phosphorylation, dose response of full-length Ocn", "setting": "[2]; WT hGPRC6A, Figure 6B", "result": "dose‐dependently stimulated"}, {"measurement": "Ocn-induced ERK activation, dose response", "setting": "[2]; isoform 1, Ocn 1.73, 8.65, 17.3, 26.0 nM, 1 mM calcium, 15 min, Figure 2B", "result": "activated GPRC6A isoform 1 in a dose dependent manner"}]}
